The subject of one data set is L 1210 leukemia cells. Format: in vivo.
For data set [1] the following is noted: cited from earlier work.
The mark [2] stands for this setting: L1210-CDF1 mice, dispersion in lipiodol.
The mark [3] stands for this setting: 57 mg/kg × 2 i.p. in lipiodol, Table III.
The mark [4] stands for this setting: 171 mg/kg × 2 i.p. in lipiodol, Table III.
Setting [5] is: 855 mg/kg × 2 i.p. in lipiodol, Table III.
The mark [6] stands for this setting: 11.6 mg/kg × 2 i.p., dispersion in lipiodol, oleic acid moiety two times stoichiometric amount, Table III.
[7] abbreviates: 31.5 mg/kg × 2 i.p. in lipiodol, Table III.
[8] abbreviates: 157 mg/kg × 2 i.p. in lipiodol, Table III.
Where [9] appears, read: 787 mg/kg, administered only one time, i.p. in lipiodol, Table III.
Setting [10] is: 25 mg/kg × 2 i.p. in lipiodol, Table I.
The mark [11] stands for this setting: 126 mg/kg × 2 i.p. in lipiodol, Table I.
The mark [12] stands for this setting: 630 mg/kg × 2 i.p. in lipiodol, Table I.

Each structure is given as a SMILES string. Read-outs that look alike come from different tables or passages of the source. Marks after values point to notes of the source that are not given here.

With `CCCCCCCCCCCCCCCCCCCCCC(=O)[O][Pt][O]C(=O)CCCCCCCCCCCCCCCCCCCCC.NC1CCCCC1N` [DACHPt(II)-(Beh)2], the “T/C (mean survival time treated / control)” value in the data set with L 1210 leukemia cells (80 mg/kg × 2 i.p. in lipiodol, Table III) is 212; in the data set on L 1210 leukemia cells (1195 mg/kg, administered only one time, i.p. in lipiodol, Table III), “Toxic”. For the same compound, the “MST (mean survival time)” value is listed as 18.0 with L 1210 leukemia cells (80 mg/kg × 2 i.p. in lipiodol, Table III control MST 8.5) and 2.0*^1 in the data set with L 1210 leukemia cells (1195 mg/kg, administered only one time, i.p. in lipiodol, Table III control MST 8.5).
Regarding `CCCCCCCCCCCCCCCCCC(=O)[O][Pt][O]C(=O)CCCCCCCCCCCCCCCCC.NC1CCCCC1N` [DACHPt(II)-(Ste)2], the “T/C (mean survival time treated / control)” value with L 1210 leukemia cells (71 mg/kg × 2 i.p. in lipiodol, Table III) is 212; in the data set on L 1210 leukemia cells (1060 mg/kg, administered only one time, i.p. in lipiodol, Table III) it was “Toxic”. Moreover, the “MST (mean survival time)” value with L 1210 leukemia cells (71 mg/kg × 2 i.p. in lipiodol, Table III control MST 8.5) is 18.0; in the data set on L 1210 leukemia cells (1060 mg/kg, administered only one time, i.p. in lipiodol, Table III control MST 8.5), 7.0*^1. Further, the “CR (mice completely cured / total mice tested)” value with L 1210 leukemia cells (mouse, in vivo) is on record as 2/5.
On to `NC1CCCCC1N.[Cl][Pt][Cl]` (stereo not drawn) [DACHP, Dichloro cyclohexane-1,2-diammine platinum (II), reference compound], for which the “T/C (mean survival time treated / control)” value was “Toxic” in the data set on L 1210 leukemia cells (22 mg/kg × 2 i.p., dispersion in lipiodol, oleic acid moiety two times stoichiometric amount, Table III) and “Toxic” in the data set on L 1210 leukemia cells (110 mg/kg × 2 i.p., dispersion in lipiodol, oleic acid moiety two times stoichiometric amount, Table III). Moreover, the “MST (mean survival time)” value came to 7.0 with L 1210 leukemia cells (22 mg/kg × 2 i.p., dispersion in lipiodol, oleic acid moiety two times stoichiometric amount, Table III control MST 8.5) and 4.0 in the data set with L 1210 leukemia cells (110 mg/kg × 2 i.p., dispersion in lipiodol, oleic acid moiety two times stoichiometric amount, Table III control MST 8.5). Also, the “toxicity when administered in a high dose” value in the data set with L 1210 leukemia cells (high dose, L1210-CDF1 mice, i.p. in lipiodol) is listed as “high toxicity”. Moreover, in the data set with L 1210 leukemia cells (setting [2]), the “complete recovery at rather low dose” value is “complete recovery is not observed”.
Regarding `CCCCCCCCCCCCCCCCCCCCCCCC(=O)[O][Pt][O]C(=O)CCCCCCCCCCCCCCCCCCCCCCC.NC1CCCCC1N` [DACHPt(II)-(Lig)2], the “T/C (mean survival time treated / control)” value in the data set with L 1210 leukemia cells (50 mg/kg × 2 i.p. in lipiodol, Table I) is on record as 150; in the data set on L 1210 leukemia cells (250 mg/kg × 2 i.p. in lipiodol, Table I) it was 100; in the data set on L 1210 leukemia cells (1250 mg/kg × 2 i.p. in lipiodol, Table I), 105. The “MST (mean survival time)” value is 10 with L 1210 leukemia cells (50 mg/kg × 2 i.p. in lipiodol, Table I control MST 10); 10 in the data set with L 1210 leukemia cells (250 mg/kg × 2 i.p. in lipiodol, Table I control MST 10); 10.5 in the data set with L 1210 leukemia cells (1250 mg/kg × 2 i.p. in lipiodol, Table I control MST 10). For the same compound, the “CR (mice completely cured / total mice tested)” value in the data set with L 1210 leukemia cells (mouse, in vivo) is listed as 0/6.
For `CCCCCCCCCCCC(=O)[O][Pt][O]C(=O)CCCCCCCCCCC.NC1CCCCC1N` [DACHPt(II)-(Lau)2], the “CR (mice completely cured / total mice tested)” value was 0/5 in the data set on L 1210 leukemia cells (setting [3]), 0/5 in the data set on L 1210 leukemia cells (setting [4]) and 3/5 in the data set on L 1210 leukemia cells (setting [5]). Besides, the results for the “T/C (mean survival time treated / control)” value with L 1210 leukemia cells (setting [3]), in the data set on L 1210 leukemia cells (setting [4]) and with L 1210 leukemia cells (setting [5]) were 141, 165 and 471, respectively. For the same compound, the “MST (mean survival time)” value was 12.0 with L 1210 leukemia cells (57 mg/kg × 2 i.p. in lipiodol, Table III control MST 8.5); 14.0 in the data set with L 1210 leukemia cells (171 mg/kg × 2 i.p. in lipiodol, Table III control MST 8.5); 40.0 with L 1210 leukemia cells (855 mg/kg × 2 i.p. in lipiodol, Table III control MST 8.5).
For `NCC1(CN)CCCCC1.O=S(=O)([O-])[O-].[Pt+2]` [spiroplatin, cis-1,1-di-(aminomethyl) cyclohexane platinum (II) sulfate], the water solubility in data set [1] was 1000 µg/mL.
Regarding `N.N.O=C([O-])C1(C(=O)[O-])CCC1.[Pt+2]` [carboplatin, cis-diammine-1,1-cyclobutane-dicarboxylate platinum (II)], the water solubility in data set [1] was 17800 µg/mL.
`N.N.[Cl][Pt][Cl]` [CDDP, Cis-dichlorodiammine platinum (II), reference compound]: the “CR (mice completely cured / total mice tested)” value with L 1210 leukemia cells (setting [6]) is listed as 0/5. Besides, the “T/C (mean survival time treated / control)” value in the data set with L 1210 leukemia cells (setting [6]) was 182; in the data set with L 1210 leukemia cells (58 mg/kg × 2 i.p., dispersion in lipiodol, oleic acid moiety two times stoichiometric amount, Table III) it was “Toxic”. The “MST (mean survival time)” value was 15.5 with L 1210 leukemia cells (11.6 mg/kg × 2 i.p., dispersion in lipiodol, oleic acid moiety two times stoichiometric amount, Table III control MST 8.5) and 4.0 with L 1210 leukemia cells (58 mg/kg × 2 i.p., dispersion in lipiodol, oleic acid moiety two times stoichiometric amount, Table III control MST 8.5). The “complete recovery at rather low dose” value in the data set on L 1210 leukemia cells (setting [2]) is “complete recovery is not observed”.
On to `CCCCCCCCCC(=O)[O][Pt]1([O]C(=O)CCCCCCCCC)[NH]C2CCCCC2[NH]1` (stereo not drawn) [DACHPt(II)-(Cap)2], for which the “CR (mice completely cured / total mice tested)” value in the data set with L 1210 leukemia cells (setting [7]) is reported as 0/6; in the data set with L 1210 leukemia cells (setting [8]) it was 2/6; in the data set with L 1210 leukemia cells (setting [9]), 0/6. The “T/C (mean survival time treated / control)” value in the data set on L 1210 leukemia cells (setting [7]) was 133; in the data set with L 1210 leukemia cells (setting [8]), “Toxic”; in the data set with L 1210 leukemia cells (setting [9]), 111. Besides, the “MST (mean survival time)” value is 12.0 in the data set with L 1210 leukemia cells (31.5 mg/kg × 2 i.p. in lipiodol, Table III control MST 8.5) and 10.0*^1 with L 1210 leukemia cells (787 mg/kg, administered only one time, i.p. in lipiodol, Table III control MST 8.5).
Take `CCCCCCCCCCCCCCCCCCCC(=O)[O][Pt][O]C(=O)CCCCCCCCCCCCCCCCCCC.NC1CCCCC1N` [DACHPt(II)-(Ara)2]: the “T/C (mean survival time treated / control)” value is recorded as 211 in the data set on L 1210 leukemia cells (73 mg/kg × 2 i.p. in lipiodol, Table II); 600 in the data set with L 1210 leukemia cells (225 mg/kg × 2 i.p. in lipiodol, Table II); “Toxic” in the data set on L 1210 leukemia cells (1127 mg/kg × 2 i.p. in lipiodol, Table II). Further, the “MST (mean survival time)” value in the data set on L 1210 leukemia cells (73 mg/kg × 2 i.p. in lipiodol, Table II control MST 9.5) is listed as 20; with L 1210 leukemia cells (225 mg/kg × 2 i.p. in lipiodol, Table II control MST 9.5), 60; with L 1210 leukemia cells (1127 mg/kg × 2 i.p. in lipiodol, Table II control MST 9.5), 7.0.
On to `CCCCCCCCCCCCCC(=O)[O][Pt][O]C(=O)CCCCCCCCCCCCC.NC1CCCCC1N` [DACHPt(II)-(Myr)2], for which the “T/C (mean survival time treated / control)” value in the data set with L 1210 leukemia cells (33 mg/kg × 2 i.p. in lipiodol, Table I) was 150; in the data set on L 1210 leukemia cells (833 mg/kg, administered only one time, i.p. in lipiodol, Table I), “Toxic”. Besides, the “MST (mean survival time)” value with L 1210 leukemia cells (33 mg/kg × 2 i.p. in lipiodol, Table I control MST 10) is recorded as 15.0; with L 1210 leukemia cells (833 mg/kg, administered only one time, i.p. in lipiodol, Table I control MST 10), 8.0*^1.
Take `CCCCCCCCCCCCCCCC(=O)[O][Pt][O]C(=O)CCCCCCCCCCCCCCC.NC1CCCCC1N` [DACHPt(II)-(Pal)2]: the “T/C (mean survival time treated / control)” value in the data set on L 1210 leukemia cells (40 mg/kg × 2 i.p. in lipiodol, Table I) is recorded as 110; in the data set with L 1210 leukemia cells (198 mg/kg × 2 i.p. in lipiodol, Table I), 115; with L 1210 leukemia cells (991 mg/kg × 2 i.p. in lipiodol, Table I), 170. In addition, the “MST (mean survival time)” value in the data set on L 1210 leukemia cells (40 mg/kg × 2 i.p. in lipiodol, Table I control MST 10) is listed as 11; with L 1210 leukemia cells (198 mg/kg × 2 i.p. in lipiodol, Table I control MST 10), 11.5; in the data set with L 1210 leukemia cells (991 mg/kg × 2 i.p. in lipiodol, Table I control MST 10) it was 17. Besides, the “CR (mice completely cured / total mice tested)” value in the data set on L 1210 leukemia cells (mouse, in vivo) is reported as 0/6.
On to `CCCCCCCC/C=C\CCCCCCCC(=O)[O-].CCCCCCCC/C=C\CCCCCCCC(=O)[O-].NC1CCCCC1N.[Pt+2]` [DACHPt(II)-(Ole)2, Cyclohexane-1,2-diammine Platinum (II) Dioleate], for which the figures for the “CR (mice completely cured / total mice tested)” value with L 1210 leukemia cells (setting [10]), with L 1210 leukemia cells (setting [11]) and with L 1210 leukemia cells (setting [12]) were 0/5, 0/6 and 2/7, respectively. In addition, the results for the “T/C (mean survival time treated / control)” value with L 1210 leukemia cells (setting [10]), in the data set on L 1210 leukemia cells (setting [11]) and in the data set on L 1210 leukemia cells (setting [12]) were 130, 170 and “Toxic”, respectively. Besides, the “MST (mean survival time)” value in the data set on L 1210 leukemia cells (25 mg/kg × 2 i.p. in lipiodol, Table I control MST 10) is 13.0; with L 1210 leukemia cells (126 mg/kg × 2 i.p. in lipiodol, Table I control MST 10) it was 17.0.

Values taken from patent US6613799B1, “Liposoluble platinum (II) complex and preparation thereof” (priority 1985, dated 2003).
